From PMC9011347, “Small-Molecule Inhibitors Targeting Lipolysis in Human Adipocytes” (Journal of the American Chemical Society, 2022)

Key:
Assay in all cases: TAG hydrolase assay, humanized mouse ATGL variants
Format in all cases: biochemical
mouse ATGL A60V = target: T1, mouse ATGL A60V (Mus musculus, UniProt Q8BJ56, A60V); conditions: variant A60V, NG-497 (10 μM) or Atglistatin (10 μM)
T1 construct: host or cells: Expi293 cells, cell lysate
Method: (§1) Figure 5 Analysis of chimeric proteins comprising human and mouse ATGL. (a) Schematic view of the minimal active domain of wild-type and chimeric ATGL variants (c1–c9). Nonidentical aa are indicated in blue and red for mouse and human ATGL, respectively. ATGL variants were expressed in Expi293 cells and TAG hydrolase activity was determined in cell lysates in the presence or absence of NG-497 (10 μM) and Atglistatin (10 μM), respectively. Inhibition of ATGL variants by respective inhibitors (tick mark) and lack of inhibition (cross) is indicated at the right edge. The expression of all ATGL variants was confirmed by Western blotting analysis (Figure S6). (b) Dose-dependent inhibition of human ATGL (aa 1–288) and c1 (human aa 1–158 and mouse aa 159–288) by NG-497. (c) Dose-dependent inhibition of mouse ATGL (aa 1–288) and c2 (mouse aa 1–158 and human aa 159–288) by Ai. IC50 values are shown in the insets. Data are presented as relative inhibition of respective DMSO controls and are indicated as mean ± SD. (d) 3D homology model of the minimal active domain of mouse ATGL (M1–L254) depicted as a cartoon. Residues 1–178 are in blue, and residues 179–254 are in gray. S47 and D166 comprising the active site are represented as green sticks. T101, C106, R109, N111, and S133 are colored in orange, A60, N68, I69, T93, C97, and T146 are colored in magenta. TEXT PRINTED IN THE PICTURE: (b) NG-497: IC50 [μM] (human): 1.3±0.1; IC50 [μM] (c1): 1.3±0.1 | (b) Ai: IC50 [μM] (human): n.det.; IC50 [μM] (c1): n.det. | (c) NG-497: IC50 [μM] (mouse): n.det.; IC50 [μM] (c2): n.det. | (c) Ai: IC50 [μM] (mouse): 2.5±0.3; IC50 [μM] (c2): 2.4±0.1 […]
(§2) The region between aa 60 and 146 of human and mouse ATGL comprises 12 nonidentical aa. We generated 3D homology models for the minimal active domain of mouse ATGL to obtain more detailed insight into the topology of the relevant region (Figure 5d). Based on this model, aa T101, C106, R109, N111, and S133 locate at peripheral (loop) regions (indicated in orange, Figure 5d). […] For all other nonidentical aa (indicated in magenta, Figure 5d), we generated variants with single aa substitutions. The humanized variants A60V, N68K, T93I, and C97F were inactivated by Ai but not NG-497 (Figure 5a).
(§3) Experimental details, materials, and methods
(§4) Expression of recombinant ATGL constructs and preparation of cell lysates. Expi293 cells were cultivated in Expi293 Expression Medium (GIBCO, Thermo Fisher Scientific, Waltham, USA) at standard conditions (37°C, 5% CO2, 95% humidified atmosphere, 125 rpm). DNA constructs containing ATGL from different species and chimeric ATGL variants in pcDNA3.1(+)myc-His C Vector were obtained from BioCat GmbH (Heidelberg, Germany). Cells were transfected with ExpiFectamine293 Transfection Kit (GIBCO) in Opti-Mem reduced serum medium (GIBCO) according to the manufacturer’s instructions. After 48 h, cells were harvested by centrifugation and washed three times with PBS. Cells were disrupted in buffer A (0.25 M sucrose, 1 mM EDTA, 1 mM dithiothreitol, 20µg/ml leupeptin, 2 µg/ml antipain, 1 µg/ml pepstatin, pH 7.0) by sonication (Virsonic 475, Virtis, Gardiner, USA). Nuclei and debris were removed by centrifugation at 1,000 g and 4°C for 10 min. Protein concentrations were determined using Bio-Rad protein assay (Bio-Rad 785, Bio-Rad Laboratories, Munich, Germany) using BSA as standard.
(§5) Expression and purification of mouse CGI-58. CGI-58 was expressed and purified as described 1. In brief, the coding sequence of mouse Cgi-58 was cloned into pHis-Sumo and co-transformed with the plasmid pTf16 expressing the chaperone Tig into E. coli BL21(DE3). Cells were cultured overnight at 37°C and 180 rpm in the presence of 40 µg/ml kanamycin and 34 µg/ml chloramphenicol. Thereafter, cells were transferred into fresh LB medium, grown until OD600 of 0.6, and expression was induced by the addition of 0.5 mM IPTG. After overnight incubation at 30°C, cells were harvested at 4,500 x g and 4°C for 20 min, […]

mouse ATGL T93I = target: T2, mouse ATGL T93I (Mus musculus, UniProt Q8BJ56, T93I); conditions: variant T93I, NG-497 (10 μM) or Atglistatin (10 μM)
T2 construct: host or cells: Expi293 cells, cell lysate
Method: as §1, §2, §3, §4, §5

mouse ATGL N68K = target: T3, mouse ATGL N68K (Mus musculus, UniProt Q8BJ56, N68K); conditions: variant N68K, NG-497 (10 μM) or Atglistatin (10 μM)
T3 construct: host or cells: Expi293 cells, cell lysate
Method: as §1, §2, §3, §4, §5

mouse ATGL C97F = target: T4, mouse ATGL C97F (Mus musculus, UniProt Q8BJ56, C97F); conditions: variant C97F, NG-497 (10 μM) or Atglistatin (10 μM)
T4 construct: host or cells: Expi293 cells, cell lysate
Method: as §1, §2, §3, §4, §5

Measured: inhibition of TAG hydrolase activity

T1 sequence (Q8BJ56 whole entry A60V): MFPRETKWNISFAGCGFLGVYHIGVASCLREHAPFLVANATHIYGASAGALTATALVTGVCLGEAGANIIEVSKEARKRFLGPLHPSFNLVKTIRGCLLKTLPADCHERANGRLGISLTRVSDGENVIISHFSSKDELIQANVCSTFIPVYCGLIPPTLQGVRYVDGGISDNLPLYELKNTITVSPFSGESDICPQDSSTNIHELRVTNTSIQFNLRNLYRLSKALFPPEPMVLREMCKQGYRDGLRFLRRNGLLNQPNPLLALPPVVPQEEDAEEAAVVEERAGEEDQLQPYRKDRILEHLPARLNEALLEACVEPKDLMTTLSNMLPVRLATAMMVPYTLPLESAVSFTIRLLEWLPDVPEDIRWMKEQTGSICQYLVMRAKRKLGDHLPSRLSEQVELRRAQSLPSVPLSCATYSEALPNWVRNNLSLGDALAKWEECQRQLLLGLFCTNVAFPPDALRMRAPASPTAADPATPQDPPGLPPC
T3 sequence (Q8BJ56 whole entry N68K): as the sequence (Q8BJ56 whole entry A60V) above, with V60A, N68K counted along it
T2 sequence (Q8BJ56 whole entry T93I): as the sequence (Q8BJ56 whole entry A60V) above, with V60A, T93I counted along it
T4 sequence (Q8BJ56 whole entry C97F): as the sequence (Q8BJ56 whole entry A60V) above, with V60A, C97F counted along it

CN(C)C(=O)Nc1cccc(-c2ccc(N(C)C)cc2)c1 [Atglistatin, reference compound]
inactivated: all assays above
